In ChEMBL document CHEMBL3352106, “Phosphocalyculin C as a pyrophosphate protoxin of calyculin C in the marine sponge Discodermia calyx” (Bioorg Med Chem Lett, 2014):

Tested on: P388
Assay: Cytotoxicity against mouse P388 cells assessed as reduction in cell viability
Format: functional, cell-based

| SMILES | IC50 |
| --- | --- |
| COC[C@@H]([C@H](O)[C@H](O)C(=O)N[C@H](C)C[C@H](C)c1nc(/C=C/C[C@@H]2O[C@]3(C[C@@H](O)[C@@H]2C)O[C@H]([C@H](C[C@H](O)[C@H](C)[C@H](O)[C@H](C)/C=C(C)/C(C)=C/C=C/C(C)=C\C#N)OC)[C@H](OP(=O)(O)OP(=O)(O)O)C3(C)C)co1)N(C)C | 36 nM |
| COC[C@@H]([C@H](O)[C@H](O)C(=O)N[C@H](C)C[C@H](C)c1nc(/C=C/C[C@@H]2O[C@]3(C[C@@H](O)[C@@H]2C)O[C@H]([C@H](C[C@H](O)[C@H](C)[C@H](O)[C@H](C)/C=C(C)/C(C)=C/C=C/C(C)=C\C#N)OC)[C@H](OP(=O)(O)O)C3(C)C)co1)N(C)C [CALYCULIN] | 0.007 nM |
